Assays:
[1] = test system: Mcl-1; assay: Western blotting, semiquantitative analysis of Mcl-1 protein bands; assay type: cell-based; conditions: control = 1, tumor cells
Experimental: (§1) The interest protein was detected by the corresponding antibody. The expression of the interest protein in the cells was detected by horseradish peroxidase-labeled secondary antibodies in combination with ECL coloration method. […] The concentration of the protein bands in the Western images were carried out semiquantitative analysis and normalization treatment with KODAK Gel Logic 1500 imaging system software.

[2] = test system: Bcl-2; assay: Western blotting, semiquantitative analysis of Bcl-2 protein bands; assay type: cell-based; conditions: control = 1, tumor cells
Experimental: as §1

[3] = test system: BAX shift towards the chondriosome; assay: Co-localization between Bax protein and chondriosome, Bax-YFP in MCF-7 cells; assay type: cell-based; conditions: for Doses (concentration at which the compound drove the BAX to shift towards the chondriosome): Bax-YFP/Mito Tracker Red; for Time (time period after which BAX shifted towards the chondriosome): at the concentration given
Experimental: 5 μg of Bax-YFP plasmid was transfected into MCF-7 cells by using calcium phosphate coprecipitation method, 24 hours later, the cells were inoculated in a 6-well plate (0.2×10^6 cells/well), and 10 μM of the compound 1 to be detected was added thereinto. 6 hours later, the cells were washed with PBS and hatched away from light with 50 nM Mito Tracker Red CMXRos (chondriosome specific probes; red) for 10 minutes. Then the cells were washed with PBS for three times, and the fluorescent image was scanned with Radiance2000 laser confocal microscopy (Bio-Rad, USA). Meanwhile, dual channel scanning was carried out, one channel was used to scan the green fluorescence of Bax-YFP, and the other channel was used to scan the red fluorescence of the CMXRos probe for indicating the chondriosome. […] When the Bax protein was localized on the chondriosome, the green and red fluorescence was superimposed into orange, as shown in FIG. 7.
Other 24 compounds were detected by the same experimental method as described above. […] Wherein the concentration and time meant that the detected compound simulated the BH3-only protein and driven the BAX to shift towards the chondriosome at the concentration for the time period.

[4] = test system: MCF-7 cells; assay: Cytotoxicity by MTT, cells without plasmid transfection; assay type: cell-based; conditions: Homo sapiens, MCF7; MCF-7, MTT, 48 hours; read-out: IC50 value in untransfected cells
Experimental: (§2) 3 μg of BAX/BAK interfering plasmid was transfected into MCF-7 cells by using calcium phosphate coprecipitation method, 24 hours later, the cells were collected. The expressions after the BAX and BAK proteins interfered with RNA was detected by Western, and the cell groups without plasmid transfection were treated similarly and were set as the control group. The transfected cells were inoculated in a 96-well plate (1×10^5 cells/well), the control experiment of the cell group without plasmid transfection was carried out in parallel. The compound 1 to be detected was added thereinto according to the concentration gradient designed before the experiment. 48 hours later, the cellular vitality was detected by MTT. The experimental results were shown in FIG. 9, Gossypol as nonspecific BH3 analogue was treated in parallel.
(§3) Other 24 compounds were also detected by the same experimental method as described above, the differences of IC50 values between the transfected cells and the without plasmid transfection cells were compared.

[5] = target: GST-Bcl-2 protein (Homo sapiens, UniProt P10415); assay: Fluorescence polarization assay, competition with FAM-Bid peptide for Bcl-2; conditions: GST-Bcl-2 40 nM, FAM-Bid 5 nM, 4 hours of incubation, read-out: Bcl-2 binding constants
Chain of GST-Bcl-2 protein (P10415 whole entry): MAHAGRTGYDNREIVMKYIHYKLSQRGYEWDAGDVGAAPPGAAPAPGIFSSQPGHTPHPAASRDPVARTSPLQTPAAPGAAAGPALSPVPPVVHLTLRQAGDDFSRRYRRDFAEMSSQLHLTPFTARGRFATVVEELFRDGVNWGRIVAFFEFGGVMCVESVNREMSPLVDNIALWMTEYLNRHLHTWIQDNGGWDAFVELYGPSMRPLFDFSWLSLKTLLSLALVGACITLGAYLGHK
Experimental: (§4) A Bid BH3 peptide (amino acids: 79-99: […]) having 21 amino acids was synthesized and marked with 6-carboxyfluorescein N-succinimidyl ester (FAM) as fluorescent tag (FAM-Bid) at the N-terminal. The reaction system used in the competitive binding experiment was GST-Bcl-2 protein (40 nM) or Mcl-1 protein, which was dissolved in the reaction buffer (100 mM K3PO4, pH 7.5; 100 μg/ml bovine γ albumin; 0.02% sodium azide) together with FAM-Bid polypeptide (5 nM). In a 96-well plate, 100 µL of the reaction system was added into each well. Then 1 μL different concentration of compound 13 mother solution to be detected dissolved in DMSO was added there into until the final concentration met the experimental design requirements. Meanwhile, two control groups were established, one with the reaction system only containing Bcl-2 or Mcl-1 and FAM-Bid (equivalent to 0% inhibition rate), the other with the reaction system only containing FAM-Bid peptide. After 4 hours of incubation, the 96-well plate was detected by enzyme-labelled meter. The fluorescent polarization value (mP) was tested at […]. Ki value was deduced according to calculation formula.
(§5) The BH3 analogous degrees of other 12 compounds were detected by using the experimental method as described above.

[6] = target: T1, interaction between Bcl-2 and Bax (Homo sapiens, UniProt P10415); assay: Intracellular FRET, Bcl-2-CFP/Bax-YFP in Hela cells; assay type: cell-based; conditions: for Time (time period after which the interaction between Bcl-2 and Bax was interfered): at the concentration given
T1 construct: expressed in transfected cells; host or cells: Hela cells
T1 sequence (P10415 whole entry): as above
Experimental: 2 μg of Bcl-2-CFP and Bax-YFP plasmids were transfected separately or simultaneously into Hela cells by using calcium phosphate coprecipitation method, 24 hours later, the cells were inoculated in a 6-well plate (2×10^5 cells/well), and the compound 1 to be detected dissolved in DMSO was added there into until the final concentration (2, 5, 10 and 15 μM) was achieved. 24 hours later (please refer to FIG. 5); the cells were washed with PBS for three times. The fluorescence value was detected by GENIOS fluorescence enzyme-labelled meter (TECAN, Swiss). In time-dependent experiment, the transfected cells were inoculated in a 6-well plate, after that, 40 μM of the compound was added thereinto. 3, 6 and 24 hours later (FIG. 6), the fluorescence intensities were detected by plate reader. As for the cell group in which only Bcl-2-CFP plasmid was transfected, the values at 475 nm emission wave length and 433 nm excitation wave length were recorded. As for the cell group in which only Bax-YFP plasmid was transfected, the values at 527 nm emission wave length and 505 nm excitation wave length were recorded. As for the cell group in which Bcl-2-CFP and Bax-YFP plasmids were co-transfected, the values at 527 nm and 475 emission wave lengths and 433 nm excitation wave length were recorded. The ratio of fluorescence intensity at 527 nm and 475 nm emission wave lengths was FRET. The FRET for the control group in which the plasmid was solely transfected was set as 1.0. […] In the cotransfected cells, the FRET increased up to 2.0 due to the interaction of Bcl-2 protein and Bax protein, and that the interference to the interaction between the two proteins increased and FRET decreased with the increase of the drug concentration and time. The cellular vitality was detected by MTT method. When the concentration of the compound reached 1 μM, the interaction between Bcl-2 and Bax can be interfered after 2 hours, and the results appeared concentration-time dependent trend.
Wherein the concentration and time meant that the detected compound interfered with the interaction between Bcl-2 and Bax at the concentration for the time period.

[7] = target: Mcl-1 protein (Homo sapiens, UniProt Q07820); assay: Fluorescence polarization assay, competition with FAM-Bid peptide for Mcl-1; conditions: FAM-Bid 5 nM, 4 hours of incubation, read-out: Mcl-1 binding constants
Chain of Mcl-1 protein (Q07820 whole entry, species assumed): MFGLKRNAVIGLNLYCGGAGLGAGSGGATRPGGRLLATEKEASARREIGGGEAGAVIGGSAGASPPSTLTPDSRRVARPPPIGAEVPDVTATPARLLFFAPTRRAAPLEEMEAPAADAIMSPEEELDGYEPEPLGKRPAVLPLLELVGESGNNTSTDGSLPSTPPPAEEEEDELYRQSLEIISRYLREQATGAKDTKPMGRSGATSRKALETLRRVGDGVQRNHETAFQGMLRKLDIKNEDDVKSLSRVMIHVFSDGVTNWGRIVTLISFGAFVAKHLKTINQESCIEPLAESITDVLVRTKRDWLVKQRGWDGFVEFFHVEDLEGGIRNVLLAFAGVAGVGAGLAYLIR
Experimental: as §4, §5

[8] = test system: MCF-7 cells transfected with BAX/BAK interfering plasmid; assay: Cytotoxicity by MTT, cells transfected with BAX/BAK interfering plasmid; assay type: cell-based; conditions: Homo sapiens, MCF7; MCF-7 with BAX/BAK interfering plasmid, MTT, 48 hours
Experimental: as §2, §3

[9] = target: His-tagged Mcl-1 protein (Homo sapiens, UniProt Q07820); assay: ELISA assay, competitive binding to Mcl-1 protein (biotin-Bim/streptavidin plate); conditions: 20 nM His-tagged Mcl-1, method calculates average IC50, read-out: Mcl-1 binding constants
Chain of His-tagged Mcl-1 protein (Q07820 whole entry): as the sequence (Q07820 whole entry, species assumed) above
Experimental: (§6) The present inventors used fluorescence polarization assay to detect the bonding force between the protein and the compounds in a previous study (PCT/CN2010/075521). […] ELISA assay was used to detect the bonding force between the compounds and the protein in this application.
(§7) Biotinylated Bim peptide was diluted to 0.09 μg/mL in SuperBlock blocking buffer in PBS and incubated for 1.5 h in 96-well microtiter plates already coated with streptavidin to allow the formation of the complex between Biotin-Bim and streptavidin. All incubations were performed at room temperature unless otherwise noted. Each inhibitor was first dissolved in pure DMSO to obtain a 10 mM stock solution. For each tested inhibitor, different concentrations of the inhibitor were incubated with 20 nM His-tagged Mcl-1 protein in PBS for 1 h with a final DMSO concentration of 4%. The plates were washed three times with PBS containing 0.05% Tween-20. The inhibitor and protein mixture (100 μL) were transferred to the plate containing the biotin-Bim/streptavidin complex and incubated for 2 h. The plate was then washed as before and mouse anti-His antibody that conjugated with horseradish peroxidase was added into the wells and incubated for 1 h. The plate was then washed with PBS containing 0.05% Tween-20. Finally, TMB was added to each well; the enzymatic reaction was stopped after 30 min by addition of H2SO4 (100 μL, 2M). Absorbances were measured with a TECAN GENios (Swiss, TECAN) microplate reader using a wavelength of 450 nm. Three independent experiments were performed with each inhibitor to calculate average IC50 value and standard deviation (SD).
(§8) The BH3 analogous degrees of other 11 compounds were detected by using the experimental method as described above. The protein binding constant (binding constant in table 1) between them and Bcl-2 and Mcl-1 proteins were also on nM grade.

[10] = target: Bcl-2 protein (Homo sapiens, UniProt P10415); assay: ELISA assay, competitive binding to Bcl-2 protein (biotin-Bim/streptavidin plate); conditions: method calculates average IC50, read-out: Bcl-2 binding constants
Chain of Bcl-2 protein (P10415 whole entry, species assumed): as the sequence (P10415 whole entry) above
Experimental: as §6, §7, §8

SMILES | Ki [5] | Doses (concentration at which the compound interfered with the interaction between Bcl-2 and Bax) [6] | Time (time period after which the interaction between Bcl-2 and Bax was interfered) [6] | Ki [7] | melting point | IC50 [9] | IC50 [10] | concentration of the protein bands (semiquantitative, normalized), Mcl-1 ([1]; 2 h) | concentration of the protein bands (semiquantitative, normalized), Mcl-1 ([1]; 6 h) | concentration of the protein bands (semiquantitative, normalized), Bcl-2 ([2]; 6 h) | concentration of the protein bands (semiquantitative, normalized), Bcl-2 ([2]; 12 h) | concentration of the protein bands (semiquantitative, normalized), Bcl-2 ([2]; 18 h) | concentration of the protein bands (semiquantitative, normalized), Bcl-2 ([2]; 24 h) | Doses (concentration at which the compound drove the BAX to shift towards the chondriosome) [3] | Time (time period after which BAX shifted towards the chondriosome) [3] | IC50 [4] | IC50 [8]
CC(C)Cc1ccc(Oc2ccc3c4c(cccc24)C2=NC(=O)C(C#N)=C23)cc1 [Compound 15, 3-(4-Isobutyl-phenoxy)-8-oxo-8H-acenaphtho[1,2-b]pyrrole-9-carbonitrile] | 140 nM | 0.5 µM | 4 h | 12 nM | – | – | – | 0.69 | 0.42 | 0.99 | 0.99 | 0.39 | 0.12 | 5.0 µM | 3 h | 7100 nM | > 50000 nM
N#CC1=C2C(=NC1=O)c1ccc(C(=O)c3ccc(CN)cc3)c3cccc2c13 [Compound 25, 4-(4-Aminomethyl-benzoyl)-8-oxo-8H-acenaphtho[1,2-b]pyrrole-9-carbonitrile] | 115 nM | 0.6 µM | 4 h | 135 nM | – | – | – | – | – | – | – | – | – | 6.0 µM | 4 h | 6500 nM | > 50000 nM
O=C1N=C2C(=C1NCCCc1ccccc1)c1ccc(Sc3ccc(Br)cc3)c3cccc2c13 [Compound 8, 3-(4-Bromo-phenylsulfanyl)-9-(3-phenyl-propylamino)-acenaphtho[1,2-b]pyrrol-8-one] | – | 0.1 µM | 1 h | – | 272 to 273 °C | 4 nM | 6 nM | 0.52 | 0.22 | 0.99 | 0.99 | 0.42 | 0.10 | 0.1 µM | 1 h | 1000 nM | > 50000 nM
CC(C)Cc1ccc(Oc2ccc3c4c(cccc24)C2=C(C#N)C(=O)N=C23)cc1 [Compound 16, 4-(4-Isobutyl-phenoxy)-8-oxo-8H-acenaphtho[1,2-b]pyrrole-9-carbonitrile] | 210 nM | 0.5 µM | 3 h | 56 nM | – | – | – | – | – | – | – | – | – | 4.0 µM | 3 h | 8500 nM | > 50000 nM

Second part, led by results:

Ki [5] | Doses (concentration at which the compound interfered with the interaction between Bcl-2 and Bax) [6] | Time (time period after which the interaction between Bcl-2 and Bax was interfered) [6] | Ki [7] | melting point | IC50 [9] | IC50 [10] | SMILES | concentration of the protein bands (semiquantitative, normalized), Mcl-1 ([1]; 2 h) | concentration of the protein bands (semiquantitative, normalized), Mcl-1 ([1]; 6 h) | concentration of the protein bands (semiquantitative, normalized), Bcl-2 ([2]; 6 h) | concentration of the protein bands (semiquantitative, normalized), Bcl-2 ([2]; 12 h) | concentration of the protein bands (semiquantitative, normalized), Bcl-2 ([2]; 18 h) | concentration of the protein bands (semiquantitative, normalized), Bcl-2 ([2]; 24 h) | Doses (concentration at which the compound drove the BAX to shift towards the chondriosome) [3] | Time (time period after which BAX shifted towards the chondriosome) [3] | IC50 [4] | IC50 [8]
105 nM | 0.5 µM | 5 h | 85 nM | – | – | – | CCCCCCOc1ccc2c3c(cccc13)C1=NC(=O)C(C(=O)O)=C12 [Compound 26, 3-Hexyloxy-8-oxo-8H-acenaphtho[1,2-b]pyrrole-9-carboxylic acid] | – | – | – | – | – | – | 5.0 µM | 5 h | 6200 nM | > 50000 nM
23 nM | 0.3 µM | 3 h | 85 nM | – | – | – | CC(C)Cc1ccc(Sc2ccc3c4c(cccc24)C2=C(C#N)C(=O)N=C23)cc1 [Compound 19, 4-(4-Isobutyl-phenylsulfanyl)-8-oxo-8H-acenaphtho[1,2-b]pyrrole-9-carbonitrile] | – | – | – | – | – | – | 3.0 µM | 3 h | 2200 nM | > 50000 nM

Reference: patent publication US8614333B2, “Acenaphtho heterocyclic compound and application thereof” (Dalian University of Technology, priority 2010, dated 2013)
